For two compounds, Kd results are on record in PMC12893000, “Structural basis of quinone sensing by the MarR-type repressor MhqR in Staphylococcus aureus” (mBio, 2025).

Molecules are shown by their SMILES.

Experiment [1] concerns the target T1, SaMhqR (Staphylococcus aureus, UniProt W8U802).
T1 construct: gene ACR79_11795; full-length (144 amino acids), C-terminal His-tag, homodimer
Description: crystal structure (co-crystallized with MHQ, oxidized to MBQ) and ITC. In kind it is binding.

The target of experiment [2] is T1, SaMhqR. Description: ITC. In kind it is binding.

T1 sequence (W8U802 entry or part of it): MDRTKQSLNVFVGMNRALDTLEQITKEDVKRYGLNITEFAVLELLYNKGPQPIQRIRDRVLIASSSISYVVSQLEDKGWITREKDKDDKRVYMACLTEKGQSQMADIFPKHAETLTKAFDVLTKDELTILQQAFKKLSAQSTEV

Turning to `CC1=CC(=O)C=CC1=O` [MBQ, 2-methylbenzoquinone], at SaMhqR [1], the equilibrium dissociation constant (Kd) (usually the concentration at which binding is half-saturated) is about 3 µM.

For the compound `Cc1cc(O)ccc1O` [MHQ, 2-methylhydroquinone], the Kd at SaMhqR [2] was about 6 µM.
